Results taken from patent US8846746B2, “Pyrazole compound and pharmaceutical use thereof” (Japan Tobacco Inc., priority 2011, dated 2014).
pIC50: −log10 of the molar value.

Biological target: human SGLT1 (Homo sapiens (Human), UniProt P13866)
Experiment: SGLT1 inhibitory activity: 14C-AMG uptake into CHO-K1 cell line stably expressing human SGLT1
Type: cell-based
Settings: for pIC50: 14C-AMG uptake; for inhibition at 0.1 µM: CHO-K1, at 0.1 uM; for inhibition at 0.3 µM: CHO-K1, at 0.3 uM
Method in brief: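 CHO-K1 cells stably expressing human SGLT1 were pre-incubated 20 min in Na(−) buffer (pH 7.4). Test compound in Na(+) buffer with BSA was added with ¹⁴C-AMG (8 kBq) plus unlabelled AMG (2 mM in the added solution) for 1 h at 37 °C.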

[1] = CHO-K1 cells stably expressing human SGLT1
[2] = CHO-K1 cells expressing human SGLT1

Chain of human SGLT1 (P13866 whole entry): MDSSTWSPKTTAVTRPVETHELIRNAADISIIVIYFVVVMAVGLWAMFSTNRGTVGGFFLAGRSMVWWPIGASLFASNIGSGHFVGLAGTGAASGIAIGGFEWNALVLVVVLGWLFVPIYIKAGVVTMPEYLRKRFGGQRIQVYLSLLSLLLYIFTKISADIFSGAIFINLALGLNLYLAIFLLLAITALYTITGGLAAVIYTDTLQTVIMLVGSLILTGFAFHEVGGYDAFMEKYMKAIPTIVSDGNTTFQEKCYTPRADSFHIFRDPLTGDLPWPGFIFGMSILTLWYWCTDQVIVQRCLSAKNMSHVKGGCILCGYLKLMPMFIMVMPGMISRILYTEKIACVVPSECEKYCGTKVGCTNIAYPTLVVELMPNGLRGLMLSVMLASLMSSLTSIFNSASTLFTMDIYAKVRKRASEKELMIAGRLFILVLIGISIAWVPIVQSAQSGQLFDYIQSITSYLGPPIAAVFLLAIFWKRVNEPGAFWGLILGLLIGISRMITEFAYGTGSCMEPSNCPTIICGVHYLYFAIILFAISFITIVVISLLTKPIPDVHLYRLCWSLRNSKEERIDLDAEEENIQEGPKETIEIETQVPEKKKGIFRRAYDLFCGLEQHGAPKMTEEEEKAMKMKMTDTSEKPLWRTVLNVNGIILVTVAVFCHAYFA

pIC50 [1]	pIC50 [2]	Compound	also measured
7.90	–	CCCc1cccc(-c2cc(NC(=O)[C@@H]3CNC(=O)C3)nn2-c2cccc(OCC(F)(F)F)c2)c1 [Example 387]	–
–	7.92	CCCc1cccc(-c2cc(NC(=O)[C@@H]3CNC(=O)C3)nn2-c2ccc(C)cc2)c1 [Example 49]	–
7.94	–	CCCc1cccc(-c2cc(NC(=O)[C@@H]3CNC(=O)C3)nn2-c2ccc(F)c(OCCOC)c2)c1 [Example 414]	–
7.46	–	O=C1NC[C@H](C(=O)Nc2cc(-c3cc(F)cc(COCC(F)(F)F)c3)n(-c3ccc(Cl)cc3)n2)N1 [Example 596]	–
7.80	–	CC(OCc1cccc(-c2cc(NC(=O)[C@@H]3CNC(=O)C3)nn2-c2ccccc2)c1)(C(F)(F)F)C(F)(F)F [Example 353]	–
–	–	CCC(F)(F)c1cccc(-c2cc(NC(=O)[C@H]3CNC(=O)C3)nn2CCN2CCCC2)c1 [Example 169]	inhibition at 0.1 µM: 4%
–	7.08	CCCc1cccc(-c2cc(NC(=O)[C@@H]3CNC(=O)C3)nn2CC2CCCCC2)c1 [Example 112]	–
8.19	–	CC(C)Oc1cccc(-n2nc(NC(=O)[C@@H]3CNC(=O)C3)cc2-c2cccc(CO[C@H](C)C(F)(F)F)c2)c1F [Example 486]	–
–	7.85	O=C1C[C@@H](C(=O)Nc2cc(-c3cccc(C(F)(F)F)c3)n(-c3cccc(F)c3)n2)CN1 [Example 213]	–
8.47	–	C[C@@H](OCc1cc(F)cc(-c2cc(NC(=O)[C@@H]3CNC(=O)C3)nn2-c2ccccc2)c1)C(F)(F)F [Example 235, (S)-5-oxopyrrolidine-3-carboxylic acid{5-[3-fluoro-5-((R)-2,2,2-trifluoro-1-methylethoxymethyl)phenyl]-1-phenyl-1H-pyrazol-3-yl}amide]	–
7.82	–	O=C1C[C@H](C(=O)Nc2cc(-c3cccc(COCC(F)(F)F)c3)n(-c3ccccc3F)n2)CN1 [Example 471]	–
8.00	–	O=C1C[C@@H](C(=O)Nc2cc(-c3cccc(COCCC(F)(F)F)c3)n(-c3ccccc3)n2)CN1 [Example 282]	–
7.66	–	CCCOCc1cccc(-c2cc(NC(=O)[C@H]3CNC(=O)C3)nn2-c2ccccc2)c1 [Example 312]	–
7.16	–	O=C1C[C@H](C(=O)Nc2cc(-c3cccc(CNCC(F)(F)F)c3)n(-c3ccccc3)n2)CN1 [Example 501]	–
7.23	–	COCCOc1cccc(-n2nc(NC(=O)[C@@H]3CNC(=O)C3)cc2-c2cccc(COCC(F)(F)F)c2)c1F [Example 483]	–
–	7.18	CCC(F)(F)c1cccc(-c2cc(NC(=O)C3CCC(=O)NC3)nn2C2CCOCC2)c1 (single isomer, unassigned) [Example 185]	–
–	5.62	O=C1C[C@@H](C(=O)Nc2cc(C3CCCC3)n(-c3ccccc3)n2)CN1 [Example 63]	–
–	8.43	CCCCc1cccc(-c2cc(NC(=O)[C@@H]3CNC(=O)C3)nn2-c2ccccc2)c1 [Example 46]	–
8.00	–	CCCc1cccc(-c2cc(NC(=O)[C@H]3CNC(=O)N3CCC)nn2-c2ccccc2)c1 [Example 304]	–
7.15	–	CCCc1cccc(-c2cc(NC(=O)[C@@H]3CNC(=O)N3CCC)nn2-c2ccccc2)c1 [Example 297]	–
8.26	–	C[C@@H](OCc1cccc(-c2cc(NC(=O)[C@H]3CNC(=O)C3)nn2-c2ccccc2)c1)C(F)(F)F [Example 561]	–
–	8.37	CCCCc1cccc(-c2cc(NC(=O)[C@H]3CNC(=O)C3)nn2-c2ccccc2)c1 [Example 45]	–
7.70	–	O=C1C[C@H](C(=O)Nc2cc(-c3cccc(COCC(F)(F)F)c3)n(-c3ccc(Cl)cc3)n2)CN1 [Example 508]	–

pIC50 [1]	pIC50 [2]	Compound	also measured
–	8.06	Cc1ccc(-n2nc(NC(=O)[C@H]3CNC(=O)C3)cc2-c2cccc(OCC(F)(F)F)c2)cc1 [Example 216]	–
7.67	–	O=C1C[C@H](C(=O)Nc2cc(-c3cccc(COCCC(F)(F)F)c3)n(-c3ccccc3)n2)CN1 [Example 281]	–
–	7.82	O=C1C[C@@H](C(=O)Nc2cc(-c3cccc(OC(F)(F)F)c3)n(-c3ccc(F)cc3)n2)CN1 [Example 147]	–
7.80	–	O=C1C[C@H](C(=O)Nc2cc(-c3cccc(OC(F)(F)F)c3)n(-c3ccccc3F)n2)CN1 [Example 466]	–
–	7.77	O=C1C[C@@H](C(=O)Nc2cc(-c3cccc(OCC(F)(F)F)c3)n(-c3ccc(F)cc3)n2)CN1 [Example 211]	–
–	–	CC(C)N(C)C(=O)c1cccc(-c2cc(NC(=O)[C@@H]3CNC(=O)C3)nn2-c2ccccc2)c1 [Example 432]	inhibition at 0.1 µM: 14%
7.82	–	COc1cc(-n2nc(NC(=O)[C@@H]3CNC(=O)C3)cc2-c2cccc(COCC(F)(F)F)c2)ccc1F [Example 416]	–
–	–	O=C1C[C@H](C(=O)Nc2cc(-c3cccc(OC(F)(F)F)c3)n(-c3ccc(Cl)cc3)n2)CN1 [Example 507]	inhibition at 0.1 µM: 50%
8.67	–	COc1ccc(F)c(-n2nc(NC(=O)[C@@H]3CNC(=O)C3)cc2-c2cccc(CO[C@H](C)C(F)(F)F)c2)c1 [Example 523]	–
–	8.14	CC(C)(C)c1cccc(-c2cc(NC(=O)[C@H]3CNC(=O)C3)nn2C2CCCCCC2)c1 [Example 84]	–
7.72	–	CCCc1cccc(-c2cc(NC(=O)[C@@H]3CNC(=O)C3)nn2-c2cccc(OCCCS(C)(=O)=O)c2)c1 [Example 492]	–
–	–	COCc1cccc(-c2cc(NC(=O)[C@@H]3CNC(=O)C3)nn2-c2ccccc2)c1 [Example 265]	inhibition at 0.1 µM: 17%
–	7.96	CCCc1cccc(-c2cc(NC(=O)[C@H]3CNC(=O)C3)nn2-c2ccc(OC)cc2)c1 [Example 121]	–
–	–	C[C@H]1C(=O)NC[C@@H]1C(=O)Nc1cc(-c2cccc(OC(F)(F)F)c2)n(-c2ccc(F)cc2F)n1 [Example 184]	inhibition at 0.03 µM (CHO-K1, at 0.03 uM): 3%
–	8.00	CC(C)c1cccc(-c2cc(NC(=O)[C@H]3CNC(=O)C3)nn2-c2ccccc2)c1 [Example 54]	–
7.92	–	CCCc1cccc(-c2cc(NC(=O)[C@@H]3CNC(=O)C3)nn2-c2cccc(OC3CCCC3)c2)c1 [Example 382]	–
8.66	–	CCCc1cccc(-c2cc(NC(=O)[C@@H]3CNC(=O)C3)nn2-c2cc(C)ccc2C)c1 [Example 324]	–
8.64	–	CC(C)Oc1cc(F)cc(-n2nc(NC(=O)[C@@H]3CNC(=O)C3)cc2-c2cccc(COCC(F)(F)F)c2)c1 [Example 529]	–
–	7.89	O=C1C[C@@H](C(=O)Nc2cc(-c3cccc(OC(F)(F)F)c3)n(-c3cccc(F)c3)n2)CN1 [Example 157]	–
–	8.01	CCCc1cccc(-c2cc(NC(=O)[C@@H]3CNC(=O)C3)nn2-c2cccc(F)c2)c1 [Example 104]	–
6.43	–	O=C1NC[C@@H](C(=O)Nc2cc(-c3cccc(OC(F)(F)F)c3)n(-c3ccccc3)n2)O1 [Example 263]	–
8.09	–	COCCOc1cccc(-n2nc(NC(=O)[C@@H]3CNC(=O)C3)cc2-c2cccc(COCC(F)(F)F)c2)c1 [Example 450]	–
8.14	–	CCCc1cccc(-c2cc(NC(=O)[C@@H]3CNC(=O)C3)nn2-c2cccc(OC)c2)c1 [Example 343]	–

pIC50 [1]	pIC50 [2]	Compound	also measured
7.35	–	C[C@@H]1C(=O)NC[C@H]1C(=O)Nc1cc(-c2cccc(CO[C@H](C)C(F)(F)F)c2)n(-c2ccccc2)n1 [Example 564]	–
–	7.70	CCCc1cccc(-c2cc(NC(=O)[C@H]3CNC(=O)N3)nn2-c2ccccc2)c1 [Example 8, (R)-2-oxoimidazolidine-4-carboxylic acid[1-phenyl-5-(3-propylphenyl)-1H-pyrazol-3-yl]amide]	–
–	7.66	CC1(C)C=C(c2cc(NC(=O)[C@H]3CNC(=O)C3)nn2-c2ccccc2)CCC1 [Example 79]	–
8.77	–	CCOc1cccc(-n2nc(NC(=O)[C@@H]3CNC(=O)C3)cc2-c2cccc(CO[C@H](C)C(F)(F)F)c2)c1 [Example 452]	–
–	–	C[C@H]1C(=O)NC[C@@H]1C(=O)Nc1cc(-c2cccc(OC(F)(F)F)c2)n(-c2ccc(Cl)c(F)c2)n1 [Example 180]	inhibition at 0.3 µM: -10%
–	8.64	O=C1C[C@@H](C(=O)Nc2cc(-c3cccc(OCC(F)(F)F)c3)n(-c3ccccc3Cl)n2)CN1 [Example 214]	–
–	7.85	CCCc1cccc(-c2cc(NC(=O)[C@H]3CNC(=O)C3)nn2CCC2CCCC2)c1 [Example 137]	–
8.26	–	CC(C)(C)Oc1cccc(-c2cc(NC(=O)[C@@H]3CNC(=O)C3)nn2-c2ccccc2)c1 [Example 290]	–
8.19	–	CCCc1cccc(-c2cc(NC(=O)[C@@H]3CNC(=O)C3)nn2-c2cccc(OCC3(C)COC3)c2)c1 [Example 491]	–
–	–	CCCc1cccc(-c2cc(NC(=O)[C@H]3CN(CC)C(=O)N3)nn2-c2ccccc2)c1 [Example 330]	inhibition at 0.3 µM: 11%
7.54	–	CCCc1cccc(-c2cc(NC(=O)[C@H]3CNC(=O)N3C(C)C)nn2-c2ccccc2)c1 [Example 328]	–
7.76	–	CC(C)OCc1cccc(-c2cc(NC(=O)[C@H]3CNC(=O)C3)nn2-c2ccccc2)c1 [Example 311]	–
8.51	–	C[C@@H](OCc1cccc(-c2cc(NC(=O)[C@@H]3CNC(=O)C3)nn2-c2cccc(OCc3ccccc3)c2)c1)C(F)(F)F [Example 438]	–
7.42	–	CCCOCc1cccc(-c2cc(NC(=O)[C@@H]3CNC(=O)C3)nn2-c2ccccc2)c1 [Example 300]	–
7.52	–	CC(C)COc1cccc(-c2cc(NC(=O)[C@@H]3CNC(=O)C3)nn2-c2ccccc2)c1 [Example 286]	–
–	7.52	CCCc1cccc(-c2cc(NC(=O)[C@H]3CNC(=O)C3)nn2Cc2ccccc2)c1 [Example 98]	–
8.22	–	CCCc1cccc(-c2cc(NC(=O)[C@@H]3CNC(=O)C3)nn2-c2cccc(Cl)c2)c1 [Example 262]	–
8.00	–	CCCOc1cccc(-n2nc(NC(=O)[C@@H]3CNC(=O)C3)cc2-c2cccc(OC(F)(F)F)c2)c1 [Example 444]	–
–	8.85	Cc1cccc(-n2nc(NC(=O)[C@H]3CNC(=O)C3)cc2-c2cccc(C(C)(C)C)c2)c1 [Example 127]	–
–	7.77	CCCc1cccc(-c2cc(NC(=O)[C@@H]3CNC(=O)N3C)nn2-c2ccccc2)c1 [Example 125]	–
–	8.20	Cc1ccccc1-n1nc(NC(=O)[C@H]2CNC(=O)C2)cc1-c1cccc(C(F)(F)F)c1 [Example 224]	–
–	7.96	CCc1cccc(-c2cc(NC(=O)[C@H]3CNC(=O)C3)nn2-c2ccccc2)c1 [Example 43]	–
